The values that follow come from patent US4913909A, “Complex of tea-leaf extract and active aluminum hydroxide” (Mitsui Norin Co., Ltd., priority 1986, dated 1990).

Data set [1] deals with indomethacin-induced ulcers (glandular stomach) of rats. Description: therapeutic effect against indomethacin ulcers of rats (method of Somogi et al.). Type of data set: in vivo, male rats of Wistar strain. The following applies: indomethacin 25 mg/kg, 100 mg/kg p.o., 7 hours. On the procedure:
The complexes prepared in Examples 1 and 2, referred to as ATM and AEGCg, respectively, hereinbelow, were tested for the therapeutic activity against gastric ulcers of rats such as pylorus-ligated or indomethacin-induced ulcers.
Separately, according to the method of Somogi, et al. disclosed in J. Pharm. Pharmac., volume 21, page 122 (1969), a group of light male rats of Wistar strain each having a body weight of about 200 g were used to test the therapeutic effect of the complexes against indomethacin ulcers. Each of the rats belonging to the test group was, after 24 hours of fasting, orally administered with ATM or AEGCg suspended in a 5% solution of gum arabic followed by oral administration of indomethacin in a dose of 25 mg/kg body weight after 30 minutes from the administration of the ATM or AEGCg. After 7 hours abstinence from food and water, the rat was killed and the stomach was excised and incised along the greater curvature to measure the length of the ulcers appearing on the glandular stomach. The overall length of the ulcers is given in Table 2 below as the ulcer index. The control group was treated in the same manner as above excepting ATM or AEGCg in the gum arabic solution.

The next data set is described as follows: acute oral toxicity. Set-up: species or system male mice of ddY strain. The following applies: mouse, in vivo, male ddY mice, fasted overnight, read-out: 50% lethal dose (LD50). The text has this: Lastly, ATM and AEGCg were subjected to the test of acute toxicity by male mice of ddY strain each having a body weight of 20 to 25 g. After fasting overnight, the mice were orally administered with ATM or AEGCg with varied doses to determine the 50% lethal dose (LD50).

Data set [2] has as its system pylorus-ligated ulcers (forestomach) of rats. The experiment in a line: therapeutic activity against pylorus-ligated gastric ulcers of rats (method of Shay et al.). The data set is classed as in vivo, male rats of Wistar strain. As to conditions: 100 mg/kg p.o., 18 hours. The method, then: After fasting 48 hours each rat was put to etherization and the stomach was ligated at the pyloric part. Immediately after the ligation, the rat was orally administered with a suspension of the ATM or AEGCg in a 5% solution of gum arabic. The control group was fed only the solution of gum arabic without either ATM or AEGCg. After 18 hours of abstinence from food and water, the rat was killed and the stomach was excised and incised along the greater curvature to examine the condition of ulcer appearing on the forestomach.

Data set [3] has as its system gastric juice / peptic activity in rats. Description: antipeptic activity or effect on secretion of gastric juice in pylorus-ligated rats (method of Shay et al.). Type of data set: in vivo, male rats of Wistar strain. As to conditions: 200 mg/kg p.o., 6 hours. On the procedure: Further, the complexes were subjected to the test for the antipeptic activity or the effect on the secretion of gastric juice in rats according to the method of Shay, et al. Thus, a group of eight male rats of Wistar strain each having a body weight of about 200 g were used as the test animals. After 24 hours of fasting, the stomach of each rat was ligated at the pyloric part under etherization. Immediately after the ligation, the rat was orally administered with ATM or AEGCg suspended in a 5% solution of gum arabic. After 6 hours of abstinence from food and water, the rat was again etherized to take out the stomach as ligated at the cardiac end. The gastric juice in the stomach was put to centrifugal separation to give a supernatant of which the volume, overall acidity and overall peptic activity were measured to give the results shown in Table 3.

Turning to `CN/C(=N/CCSCc1nc[nH]c1C)NC#N` [Cimetidine], the “Ulcer index (mm)” value in data set [1] (overall length of ulcers) was determined as 13.3 ± 2.8 mm. Further, the “Suppression (%)” value in data set [1] (ulcer index vs control) amounted to 62.4%.
For `O=C(O[C@@H]1Cc2c(O)cc(O)cc2O[C@@H]1c1cc(O)c(O)c(O)c1)c1cc(O)c(O)c(O)c1` [EGCg, (-)-epigallocatechin gallate], the LD50 (commonly the dose expected to kill half of the subjects tested) in the data set “acute oral toxicity” amounted to 2500 mg/kg.
Sucralfate: the Ulcer index in data set [2] came to 2.86 ± 0.40. Besides, the “Suppression (%)” value in data set [2] (ulcer index vs control) was found to be 41.5%. In data set [3], the “Overall acidity (mEq/liter)” value was 85.4 ± 3.8 mEq/liter, the “Peptic activity (mg tyrosine)” value was found to be 585.3 ± 68.0 mg tyrosine and the “Volume of gastric juice (ml/rat)” value worked out at 7.98 ± 0.39 ml/rat. Further, the “Suppression (%)” value in data set [3] (peptic activity vs control) was 35.0%.
